For 2 compounds, tumor growth and IC50 results are on record in publication PMC6360136 (Investigational new drugs, 2018).

Assay [1] relates to colon cancer xenograft. The settings on record: colon cancer xenograft mice model, 0.25 mg/kg daily dosing ref 18, 19; cited from earlier work.
The subject of assay [2] is EC46 cells. The assay is described as follows: Cell viability assay. In kind it is cell-based, human. The note with it: Homo sapiens, Pancreatic cancer cell, 48 h.
Assay [3] deals with PANC-1 cells. Kind of assay: Cell viability assay. The assay is classed as cell-based, human. The note with it: Homo sapiens, PANC-1, 48 h.
Assay [4] relates to EC68 cells. Kind of assay: Cell viability assay. The assay is classed as cell-based, human. The note with it: Homo sapiens, Pancreatic cancer cell, 48 h.

Where a name gives a salt, the structure may show the parent alone.

In the case of `CC[C@H](C)[C@H]1C(=O)N2CCC[C@@H]2C(=O)O[C@H](C(C)(C)C)C[C@@H](C)C[C@H](O)C(C)(C)C2=N[C@@H](CCC(=O)N[C@@H](Cc3ccc(OC)cc3)C(=O)N(C)[C@@H](C)C(=O)N1C)CS2` [Apratoxin S8, apratoxin S8], the tumor growth result in assay [1] was “significantly retarded tumor growth”.

The IC50 is the point on the concentration scale where inhibition reaches its midpoint. A higher IC50 goes with weaker potency in that assay. In the case of `C#Cc1cccc(Nc2ncnc3cc(OCCOC)c(OCCOC)cc23)c1` [erlotinib hydrochloride, reference compound], the figures for the 50% inhibitory concentration (IC50) in assay [2], in assay [3] and in assay [4] were 2.41 µM, 13.1 µM and 8.96 µM, respectively.
